Measured values: ChEMBL document CHEMBL4049450, “Discovery of 5-Azaindazole (GNE-955) as a Potent Pan-Pim Inhibitor with Optimized Bioavailability” (J Med Chem, 2017)
In brackets after ≈: the same amount, converted by molar mass.

What was measured:
[1] = target: Serine/threonine-protein kinase pim-1 (Homo sapiens, UniProt P11309); assay: Inhibition of PIM1 (unknown origin) using 5FAM-ARKRRRHPSGPPTA as substrate after 90 mins in presence of ATP by caliper microfluidic mobility shift assay
[2] = target: Serine/threonine-protein kinase pim-2 (Homo sapiens, UniProt Q9P1W9); assay: Inhibition of PIM2 (unknown origin) using 5FAM-ARKRRRHPSGPPTA as substrate after 90 mins in presence of ATP by caliper microfluidic mobility shift assay
Serine/threonine-protein kinase pim-2, sequence (Q9P1W9 whole entry): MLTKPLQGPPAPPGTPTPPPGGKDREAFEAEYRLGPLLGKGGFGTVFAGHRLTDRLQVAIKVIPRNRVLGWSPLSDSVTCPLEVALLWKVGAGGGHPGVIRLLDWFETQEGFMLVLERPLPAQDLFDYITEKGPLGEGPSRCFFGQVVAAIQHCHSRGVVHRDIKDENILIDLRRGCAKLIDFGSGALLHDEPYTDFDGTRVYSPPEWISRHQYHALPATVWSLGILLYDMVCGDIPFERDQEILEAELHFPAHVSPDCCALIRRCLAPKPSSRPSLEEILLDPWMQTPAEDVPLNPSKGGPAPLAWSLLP

[3] = Metabolic stability in rat intestinal microsomes assessed as compound remaining after 60 mins in presence of NADPH; format: ADME, Intestine, Microsome; settings: read-out: Stability
[4] = Metabolic stability in rat intestinal microsomes assessed as compound remaining after 60 mins in absence of NADPH/UDPGA; format: ADME, Intestine, Microsome; settings: for remaining at 1 h: intestinal microsomes, read-out: Stability; for Stability: microsomes, 1 h
[5] = target: Serine/threonine-protein kinase pim-3 (Homo sapiens, UniProt Q86V86); assay: Inhibition of PIM3 (unknown origin) using 5FAM-ARKRRRHPSGPPTA as substrate after 90 mins in presence of ATP by caliper microfluidic mobility shift assay
[6] = Metabolic stability in rat intestinal microsomes assessed as compound remaining after 60 mins in presence of UDPGA; format: ADME, Intestine, Microsome; settings: read-out: Stability
[7] = Metabolic stability in rat intestinal microsomes assessed as compound remaining after 60 mins in presence of NADPH/UDPGA; format: ADME, Intestine, Microsome; settings: for remaining at 1 h: intestinal microsomes, read-out: Stability; for Stability: microsomes, 1 h
[8] = Oral bioavailability in rat at 5 mg/kg; format: ADME, organism-based; settings: in vivo
[9] = Apparent permeability across apical to basolateral side in MDCK cells; format: ADME, cell-based, Canis lupus familiaris; settings: dog
[10] = Kinetic solubility of compound at pH 7.4; settings: buffer
[11] = Clearance in rat at 1 mg/kg, iv; format: ADME, organism-based; settings: in vivo
[12] = Clearance in rat liver microsomes; format: ADME, microsome
[13] = Efflux ratio of apparent permeability in MDCK cells; settings: dog
[14] = Clearance in rat hepatocytes; format: ADME, cell-based, Hepatocyte
[15] = Metabolic stability in dog intestinal microsomes assessed as compound remaining after 60 mins in absence of NADPH/UDPGA; format: ADME, Canis lupus familiaris, Intestine, Microsome; settings: 1 h
[16] = Metabolic stability in cynomolgus monkey intestinal microsomes assessed as compound remaining after 60 mins in presence of NADPH/UDPGA; format: ADME, Macaca fascicularis, Intestine, Microsome; settings: 1 h
[17] = Metabolic stability in mouse intestinal microsomes assessed as compound remaining after 60 mins in absence of NADPH/UDPGA; format: ADME, Intestine, Microsome; settings: 1 h
[18] = Metabolic stability in cynomolgus monkey intestinal microsomes assessed as compound remaining after 60 mins in absence of NADPH/UDPGA; format: ADME, Macaca fascicularis, Intestine, Microsome; settings: 1 h
[19] = Metabolic stability in dog intestinal microsomes assessed as compound remaining after 60 mins in presence of NADPH/UDPGA; format: ADME, Canis lupus familiaris, Intestine, Microsome; settings: 1 h
[20] = Metabolic stability in mouse intestinal microsomes assessed as compound remaining after 60 mins in presence of NADPH/UDPGA; format: ADME, Intestine, Microsome; settings: 1 h
[21] = Metabolic stability in human intestinal microsomes assessed as compound remaining after 60 mins in absence of NADPH/UDPGA; format: ADME, Intestine, Microsome; settings: 1 h
[22] = Metabolic stability in human intestinal microsomes assessed as compound remaining after 60 mins in presence of NADPH/UDPGA; format: ADME, Intestine, Microsome; settings: 1 h
MM1.S = assay: Antiproliferative activity against human MM1S cells after 72 hrs by CellTiter-Glo assay; format: functional, cell-based

Serine/threonine-protein kinase pim-1, sequence (P11309 whole entry): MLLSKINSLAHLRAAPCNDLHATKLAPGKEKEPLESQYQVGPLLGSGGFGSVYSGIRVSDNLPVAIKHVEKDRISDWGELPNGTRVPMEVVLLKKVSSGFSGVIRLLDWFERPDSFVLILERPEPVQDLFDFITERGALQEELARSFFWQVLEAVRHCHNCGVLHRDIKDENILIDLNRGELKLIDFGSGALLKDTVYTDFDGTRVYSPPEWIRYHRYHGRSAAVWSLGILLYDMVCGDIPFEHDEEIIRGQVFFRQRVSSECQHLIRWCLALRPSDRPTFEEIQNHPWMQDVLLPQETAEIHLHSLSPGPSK

Compound | Ki [1] [nM] | Ki [2] [nM] | remaining at 1 h [3] [%] | remaining at 1 h [4] [%] | Ki [5] [nM] | remaining at 1 h [6] [%] | remaining at 1 h [7] [%] | further results
CCn1cc(-c2cc3c(-c4cccc(N5CCN(C)CC5)n4)n[nH]c3cn2)cn1 | 0.3 | 3 | 91 | 82 | 0.1 | 0.4 | 0.4 | –
Cc1cncc(-c2cc3c(-c4cccc(N5CCCNCC5)n4)nsc3cn2)n1 | 0.7 | 18 | 101 | 101 | 1 | 91 | 98 | –
Cc1ccc(-c2n[nH]c3cnc(-c4cccnc4)cc23)nc1N1CCC[C@H](N)C1 | – | – | 37 | 98 | – | 62 | 27 | bioavailability [8]: 0%; Papp A→B [9]: 3 ×10⁻⁶ cm/s; solubility kinetic [10]: 81.2 µM (≈ 31.3 µg/mL); clearance [11]: 21 mL/min/kg; CLhep predicted [12]: 34 mL/min/kg; efflux ratio [13]: 1.8; CLhep predicted [14]: 34 mL/min/kg
Cc1cncc(-c2cc3c(ccn3-c3cccc(N4CCCNCC4)n3)cn2)n1 | 0.5 | 9.6 | 100 | 98 | 0.8 | 104 | 102 | –
Cn1nc(-c2cccc(N3CCC[C@H](N)C3)n2)c2cc(-c3cccnc3)ncc21 | 190 | 630 | 59 | 96 | 120 | 103 | 62 | –
N[C@H]1CCCN(c2cccc(-c3n[nH]c4cnc(-c5cccnc5)cc34)n2)C1 | 0.04 | 0.2 | 34 | 93 | 0.02 | 48 | 26 | –
c1cncc(-c2cc3c(-c4cccc(N5CCNCC5)n4)n[nH]c3cn2)c1 | – | – | – | – | – | – | – | Stability [15]: Stable; Stability [16]: Stable; Stability [4]: Stable; Stability [17]: Unstable; Stability [18]: Stable; Stability [19]: Stable; Stability [20]: Unstable; Stability [21]: Stable; Stability [7]: Unstable; Stability [22]: Stable
Cn1cc(-c2cc3c(-c4cccc(N5CCC[C@H](N)C5)n4)nn(C)c3cn2)cn1 | 38 | 170 | 91 | 95 | 23 | 92 | 102 | –
Cc1ccc(-c2n[nH]c3cnc(-c4cccnc4)cc23)nc1N1CC[C@@H](N)C1 | – | – | – | – | – | – | – | Stability [15]: Stable; Stability [16]: Stable; Stability [4]: Stable; Stability [17]: Unstable; Stability [18]: Stable; Stability [19]: Stable; Stability [20]: Unstable; Stability [21]: Stable; Stability [7]: Unstable; Stability [22]: Stable
Cc1cncc(-c2cc3c(cn2)cnn3-c2cccc(N3CCCNCC3)n2)n1 | – | – | 99 | 91 | – | 85 | 91 | bioavailability [8]: 42%; IC50 (MM1.S): 5000 nM; clearance [11]: 28 mL/min/kg; CLhep predicted [12]: 32 mL/min/kg; CLhep predicted [14]: 27 mL/min/kg
Cc1cncc(-c2cc(F)c3cnn(-c4cccc(N5CCCNCC5)n4)c3c2)n1 | 450 | 7400 | 107 | 108 | 270 | 103 | 98 | –
CN1CCN(c2cc3c(-c4cccc(N5CCNCC5)n4)n[nH]c3cn2)CC1=O | – | – | 120 | – | – | 56 | 42 | bioavailability [8]: 1.4%; Stability [4]: 130%; solubility kinetic [10]: 93.4 µM (≈ 36.7 µg/mL); clearance [11]: 19 mL/min/kg; CLhep predicted [12]: 31 mL/min/kg; CLhep predicted [14]: 18 mL/min/kg
Cc1cncc(-c2cc3c(cn2)cnn3-c2cccc([C@H]3CNCCC3(F)F)n2)n1 | 0.07 | 0.23 | – | – | – | – | – | bioavailability [8]: 57%; IC50 (MM1.S): 1200 nM; clearance [11]: 40 mL/min/kg; CLhep predicted [12]: 42 mL/min/kg; CLhep predicted [14]: 31 mL/min/kg
Cc1cncc(-c2cnc3cnn(-c4cccc(N5CCCNCC5)n4)c3c2)n1 | 0.8 | 13 | 100 | 87 | 0.4 | 79 | 76 | –
c1cncc(-c2cc3c(-c4cccc(N5CCCNCC5)n4)n[nH]c3cn2)c1 | – | – | – | – | – | – | – | Stability [15]: Stable; Stability [16]: Stable; Stability [4]: Stable; Stability [17]: Unstable; Stability [18]: Stable; Stability [19]: Stable; Stability [20]: Unstable; Stability [21]: Stable; Stability [7]: Unstable; Stability [22]: Stable
Cc1cncc(-c2cc3c(cnn3-c3cccc(N4CCCNCC4)n3)nn2)n1 | 0.02 | 0.48 | 118 | 103 | 0.03 | 81 | 80 | –
Cn1cc(-c2cc3c(-c4cccc(N5CCC[C@H](N)C5)n4)n[nH]c3cn2)cn1 | – | 0.2 | 86 | 87 | 0.02 | 67 | 69 | –
CCn1cc(-c2cc3c(-c4cccc(N5CCOCC5)n4)n[nH]c3cn2)cn1 | – | 4 | 89 | 77 | 0.2 | 0.2 | 0.4 | –
Cc1cncc(-c2cn3c(-c4cccc(N5CCCNCC5)n4)ncc3cn2)n1 | 0.5 | 16 | 111 | 106 | 0.4 | 69 | 66 | –
Cn1cc(-c2cc3c(-c4cccc(N5CCC[C@@H](N)C5)n4)n[nH]c3cn2)cn1 | – | – | – | – | – | – | – | Stability [15]: Stable; Stability [16]: Stable; Stability [4]: Stable; Stability [17]: Unstable; Stability [18]: Stable; Stability [19]: Stable; Stability [20]: Unstable; Stability [21]: Stable; Stability [7]: Unstable; Stability [22]: Stable
Cc1cncc(-c2ccc3cnn(-c4cccc(N5CCCNCC5)n4)c3c2)n1 | 0.4 | 7.9 | 84 | 91 | 0.2 | 100 | 101 | –
